Measured values reported in the CheMixHub viscosity set.
± gives the uncertainty stated by the source.

Test: xn = mol fraction of the nth substance listed

CCC(C)c1ccccc1 (stereo not drawn) + CCCCCCCCCCCC
viscosity [mPa·s], 102 kPa
Conditions | x1 = 0.1008 | x1 = 0.2007 | x1 = 0.2993 | x1 = 0.4003 | x1 = 0.4998 | x1 = 0.62 | x1 = 0.6996 | x1 = 0.7999 | x1 = 0.9004
293.15 K | 1.41 ± 0.02 | 1.33 ± 0.02 | 1.26 ± 0.02 | 1.19 ± 0.02 | 1.131 ± 0.021 | 1.064 ± 0.021 | 1.027 ± 0.021 | 0.992 ± 0.021 | 0.959 ± 0.021
303.15 K | 1.19 ± 0.02 | 1.128 ± 0.021 | 1.072 ± 0.021 | 1.02 ± 0.021 | 0.971 ± 0.021 | 0.923 ± 0.021 | 0.896 ± 0.021 | 0.862 ± 0.021 | 0.835 ± 0.021
313.15 K | 1.015 ± 0.021 | 0.973 ± 0.021 | 0.935 ± 0.021 | 0.893 ± 0.021 | 0.853 ± 0.021 | 0.812 ± 0.021 | 0.784 ± 0.021 | 0.755 ± 0.021 | 0.732 ± 0.021
323.15 K | 0.888 ± 0.021 | 0.852 ± 0.021 | 0.817 ± 0.021 | 0.783 ± 0.021 | 0.751 ± 0.021 | 0.717 ± 0.021 | 0.694 ± 0.021 | 0.669 ± 0.021 | 0.649 ± 0.021

CCCOC(=O)CC + CCCCCCCCCCCCCC
298.15 K, 101.33 kPa
Conditions | viscosity [mPa·s]
x2 = 0.0774 | 0.704 ± 0.007
x2 = 0.1347 | 0.757 ± 0.007
x2 = 0.2041 | 0.828 ± 0.008
x2 = 0.2829 | 0.915 ± 0.009
x2 = 0.3321 | 0.972 ± 0.009
x2 = 0.4571 | 1.13 ± 0.011
x2 = 0.5528 | 1.263 ± 0.012
x2 = 0.6895 | 1.473 ± 0.013
x2 = 0.8219 | 1.706 ± 0.015
x2 = 0.9084 | 1.878 ± 0.017

CCCCCCCCCCCCCC[P+](CCCCCC)(CCCCCC)CCCCCC.c1c[n-]nn1 + CCCCCCCCCCCCCC[P+](CCCCCC)(CCCCCC)CCCCCC.O=S(=O)([N-]S(=O)(=O)C(F)(F)F)C(F)(F)F
viscosity [mPa·s], 100 kPa
Conditions | x1 = 0.098 | x1 = 0.201 | x1 = 0.3 | x1 = 0.401 | x1 = 0.5 | x1 = 0.599 | x1 = 0.7 | x1 = 0.797 | x1 = 0.901
293.15 K | 425 ± 54 | 473 ± 60 | 495 ± 63 | 465 ± 59 | 502 ± 64 | 539 ± 69 | 533 ± 69 | 547 ± 70 | 553 ± 71
298.15 K | 313 ± 39 | 348 ± 44 | 362 ± 46 | 338 ± 43 | 363 ± 46 | 390 ± 49 | 385 ± 49 | 393 ± 50 | 397 ± 50
303.15 K | 236 ± 29 | 261 ± 32 | 270 ± 34 | 251 ± 31 | 270 ± 34 | 288 ± 36 | 284 ± 35 | 289 ± 36 | 291 ± 36
308.15 K | 181 ± 22 | 200 ± 25 | 207 ± 26 | 191 ± 24 | 204 ± 25 | 218 ± 27 | 214 ± 26 | 217 ± 27 | 220 ± 27
313.15 K | 142 ± 17 | 156 ± 19 | 160 ± 20 | 148 ± 18 | 158 ± 19 | 168 ± 21 | 165 ± 20 | 167 ± 20 | 168 ± 21
318.15 K | 112 ± 14 | 124 ± 15 | 127 ± 15 | 117 ± 14 | 124 ± 15 | 132 ± 16 | 129 ± 16 | 131 ± 16 | 132 ± 16
323.15 K | 91 ± 11 | 100 ± 12 | 102 ± 12 | 94 ± 11 | 100 ± 12 | 106 ± 13 | 103 ± 12 | 104 ± 13 | 106 ± 13

Nc1cccc(Cl)c1 + CCCCCCCCCCO
viscosity [mPa·s], 101 kPa
Conditions | x1 = 0.1699 | x1 = 0.3153 | x1 = 0.4411 | x1 = 0.5511 | x1 = 0.6481 | x1 = 0.7342 | x1 = 0.8112 | x1 = 0.8805 | x1 = 0.9431
303.15 K | 8.772 ± 0.26 | 7.947 ± 0.24 | 7.247 ± 0.22 | 6.641 ± 0.21 | 6.113 ± 0.19 | 5.648 ± 0.18 | 5.238 ± 0.17 | 4.871 ± 0.16 | 4.546 ± 0.15
308.15 K | 7.358 ± 0.22 | 6.71 ± 0.21 | 6.16 ± 0.19 | 5.687 ± 0.18 | 5.274 ± 0.17 | 4.912 ± 0.16 | 4.593 ± 0.15 | 4.31 ± 0.14 | 4.061 ± 0.14
313.15 K | 6.213 ± 0.2 | 5.693 ± 0.18 | 5.254 ± 0.17 | 4.878 ± 0.16 | 4.549 ± 0.15 | 4.262 ± 0.14 | 4.01 ± 0.13 | 3.788 ± 0.13 | 3.596 ± 0.12
318.15 K | 5.338 ± 0.17 | 4.899 ± 0.16 | 4.532 ± 0.15 | 4.217 ± 0.14 | 3.943 ± 0.13 | 3.704 ± 0.12 | 3.494 ± 0.12 | 3.311 ± 0.11 | 3.153 ± 0.11

Nc1cccc(Cl)c1 + CCCCCCCCO
viscosity [mPa·s], 101 kPa
Conditions | x1 = 0.1441 | x1 = 0.2748 | x1 = 0.3937 | x1 = 0.5026 | x1 = 0.6025 | x1 = 0.6945 | x1 = 0.7795 | x1 = 0.8584 | x1 = 0.9317
303.15 K | 6.059 ± 0.19 | 5.754 ± 0.18 | 5.485 ± 0.18 | 5.247 ± 0.17 | 5.034 ± 0.17 | 4.844 ± 0.16 | 4.674 ± 0.15 | 4.519 ± 0.15 | 4.379 ± 0.15
308.15 K | 5.155 ± 0.17 | 4.924 ± 0.16 | 4.723 ± 0.16 | 4.547 ± 0.15 | 4.391 ± 0.15 | 4.253 ± 0.14 | 4.131 ± 0.14 | 4.02 ± 0.13 | 3.924 ± 0.13
313.15 K | 4.409 ± 0.15 | 4.229 ± 0.14 | 4.076 ± 0.14 | 3.941 ± 0.13 | 3.823 ± 0.13 | 3.721 ± 0.13 | 3.63 ± 0.12 | 3.551 ± 0.12 | 3.483 ± 0.12
318.15 K | 3.856 ± 0.13 | 3.697 ± 0.12 | 3.564 ± 0.12 | 3.448 ± 0.12 | 3.347 ± 0.11 | 3.258 ± 0.11 | 3.181 ± 0.11 | 3.114 ± 0.11 | 3.06 ± 0.1

Nc1cccc(Cl)c1 + CCCCCCCO
viscosity [mPa·s], 101 kPa
Conditions | x1 = 0.1306 | x1 = 0.2526 | x1 = 0.3669 | x1 = 0.4741 | x1 = 0.5749 | x1 = 0.6698 | x1 = 0.7593 | x1 = 0.844 | x1 = 0.9241
303.15 K | 4.923 ± 0.22 | 4.794 ± 0.21 | 4.684 ± 0.21 | 4.589 ± 0.2 | 4.509 ± 0.2 | 4.442 ± 0.2 | 4.385 ± 0.19 | 4.336 ± 0.19 | 4.292 ± 0.19
308.15 K | 4.229 ± 0.19 | 4.143 ± 0.18 | 4.072 ± 0.18 | 4.014 ± 0.18 | 3.966 ± 0.18 | 3.927 ± 0.17 | 3.895 ± 0.17 | 3.869 ± 0.17 | 3.853 ± 0.17
313.15 K | 3.647 ± 0.16 | 3.585 ± 0.16 | 3.538 ± 0.16 | 3.501 ± 0.16 | 3.473 ± 0.15 | 3.451 ± 0.15 | 3.438 ± 0.15 | 3.433 ± 0.15 | 3.432 ± 0.15
318.15 K | 3.346 ± 0.15 | 3.269 ± 0.15 | 3.207 ± 0.14 | 3.156 ± 0.14 | 3.114 ± 0.14 | 3.079 ± 0.14 | 3.051 ± 0.14 | 3.032 ± 0.14 | 3.023 ± 0.14

Nc1cccc(Cl)c1 + CCCCCCO
viscosity [mPa·s], 101 kPa
Conditions | x1 = 0.1167 | x1 = 0.2291 | x1 = 0.3375 | x1 = 0.4421 | x1 = 0.5431 | x1 = 0.6407 | x1 = 0.735 | x1 = 0.8263 | x1 = 0.9145
303.15 K | 3.905 ± 0.13 | 3.925 ± 0.13 | 3.95 ± 0.13 | 3.98 ± 0.13 | 4.014 ± 0.14 | 4.056 ± 0.14 | 4.104 ± 0.14 | 4.156 ± 0.14 | 4.205 ± 0.14
308.15 K | 3.383 ± 0.12 | 3.417 ± 0.12 | 3.454 ± 0.12 | 3.497 ± 0.12 | 3.545 ± 0.12 | 3.598 ± 0.12 | 3.654 ± 0.12 | 3.715 ± 0.12 | 3.776 ± 0.13
313.15 K | 2.939 ± 0.1 | 2.976 ± 0.1 | 3.017 ± 0.1 | 3.064 ± 0.11 | 3.115 ± 0.11 | 3.17 ± 0.11 | 3.229 ± 0.11 | 3.292 ± 0.11 | 3.357 ± 0.11
318.15 K | 2.662 ± 0.092 | 2.681 ± 0.093 | 2.707 ± 0.093 | 2.738 ± 0.094 | 2.773 ± 0.095 | 2.814 ± 0.097 | 2.857 ± 0.098 | 2.906 ± 0.099 | 2.959 ± 0.1
